From patent publication US20250215029A1 (Recludix Pharma, Inc., priority 2022, published 2025)
Read-outs that look alike come from different tables or passages of the source.

How the values were obtained:
[1] = target: T1, Recombinant STAT6 protein (STAT6 (W123-T658)) (Homo sapiens, UniProt P42226); assay: STAT6 Fluorescence Polarization (FP) Assay; assay type: binding; conditions: probe 5-FAM-Ap[…]-NH2 2 nM, 45-minute incubation
T1 construct: Recombinant STAT6 protein (STAT6 (W123-T658))
T1 sequence (P42226 123-658): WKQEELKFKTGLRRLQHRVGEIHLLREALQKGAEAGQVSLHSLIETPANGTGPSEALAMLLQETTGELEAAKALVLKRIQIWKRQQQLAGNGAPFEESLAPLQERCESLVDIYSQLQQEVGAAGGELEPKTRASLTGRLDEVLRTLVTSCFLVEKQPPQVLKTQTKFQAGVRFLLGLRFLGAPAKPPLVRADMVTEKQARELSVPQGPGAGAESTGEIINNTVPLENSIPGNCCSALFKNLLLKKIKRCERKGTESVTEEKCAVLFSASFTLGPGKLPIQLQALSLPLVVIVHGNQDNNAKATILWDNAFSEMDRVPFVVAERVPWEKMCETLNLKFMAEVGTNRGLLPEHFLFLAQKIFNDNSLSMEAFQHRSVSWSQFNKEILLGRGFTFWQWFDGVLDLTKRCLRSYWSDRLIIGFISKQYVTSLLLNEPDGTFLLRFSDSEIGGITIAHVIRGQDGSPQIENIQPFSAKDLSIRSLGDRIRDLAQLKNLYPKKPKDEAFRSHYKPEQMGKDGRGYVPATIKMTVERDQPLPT
Summary of the method: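 Probe displacement format: serially diluted compounds incubated 45 min at room temperature with 2 nM fluorescent phosphopeptide and 250 nM STAT6 (W123-T658) in pH 7.4 HEPES buffer, 1% DMSO final. Polarization signal plotted against log concentration, IC50 fitted by nonlinear regression.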

[2] = target: T2, Recombinant STAT3 protein (STAT3 (G127-I722)) (Homo sapiens, UniProt P40763); assay: STAT3 Fluorescence Polarization (FP) Assay; assay type: binding; conditions: probe 5-FAM-GpYLPQTV-NH2 2 nM, 45-minute incubation
T2 construct: Recombinant STAT3 protein (STAT3 (G127-I722))
Summary of the method: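 Read-out is fluorescence polarization (mP) after 45 min at room temperature, with IC50 fitted by nonlinear regression against log compound concentration. Mixture: 25 nM STAT3 (G127-I722), 2 nM 5-FAM-GpYLPQTV-NH2 phosphopeptide, 10 mM HEPES pH 7.4 buffer, 1% DMSO.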

[3] = STAT6 250 nM, read-out: STAT6 (FP assay IC50)
[4] = STAT3 25 nM, read-out: STAT3 (FP assay IC50)
[5] = STAT6 (W123-T658) 250 nM, read-out: STAT6 (FP assay IC50 class)
[6] = STAT3 (G127-I722) 25 nM, read-out: STAT3 (FP assay IC50 class)

T2 sequence (P40763 127-722): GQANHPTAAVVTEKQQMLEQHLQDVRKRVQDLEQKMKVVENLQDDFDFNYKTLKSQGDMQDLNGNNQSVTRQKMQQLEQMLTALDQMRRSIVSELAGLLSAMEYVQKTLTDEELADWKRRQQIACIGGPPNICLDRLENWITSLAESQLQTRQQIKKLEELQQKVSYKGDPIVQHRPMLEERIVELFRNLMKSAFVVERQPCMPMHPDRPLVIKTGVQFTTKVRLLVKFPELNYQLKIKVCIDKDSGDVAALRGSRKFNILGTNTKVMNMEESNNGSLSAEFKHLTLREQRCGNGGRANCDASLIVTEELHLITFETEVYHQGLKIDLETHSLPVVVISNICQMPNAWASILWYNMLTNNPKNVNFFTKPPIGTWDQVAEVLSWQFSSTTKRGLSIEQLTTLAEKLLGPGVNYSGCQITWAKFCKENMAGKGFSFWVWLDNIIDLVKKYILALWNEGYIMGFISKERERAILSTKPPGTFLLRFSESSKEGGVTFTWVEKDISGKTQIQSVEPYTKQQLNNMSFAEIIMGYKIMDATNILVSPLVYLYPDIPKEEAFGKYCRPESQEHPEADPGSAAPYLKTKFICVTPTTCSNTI

O=C(N[C@H]1CCCC[C@H]2CC[C@@H](C(=O)N3CC(C4CCOCC4)C3)N2C1=O)c1cc2cc(C(F)(F)P(=O)(O)O)ccc2s1 [Compound 118A, (difluoro(2-(((3S,6S,10a S)-5-oxo-3-(3-(tetrahydro-2H-pyran-4-yl)azetidine-1-carbonyl)decahydropyrrolo-[1,2a]azocin-6-yl)carbamoyl)benzo[b]thiophen-5-yl)methyl) phosphonic acid]
IC50 [1, 3]: 3 to 30 µM | IC50 [2, 4]: 0.1 to 1 µM

O=C(N[C@H]1CCCC[C@H]2CC[C@@H](C(=O)N3CCN(C(=O)c4cn[nH]c4)CC3)N2C1=O)c1cc2cc(C(F)(F)P(=O)(O)O)ccc2s1 [Compound 118B, ((2-(((3S,6S,10a S)-3-(4-(1H-pyrazole-4-carbonyl)piperazine-1-carbonyl)-5-oxodecahydro-pyrrolo [1,2-a]azocin-6-yl)carbamoyl)benzo[b]thiophen-5-yl)difluoromethyl) phosphonic acid]
IC50 [1, 3]: 0.3 to 3 µM | IC50 [2, 4]: 0.1 to 1 µM

O=C(N[C@H]1CCC[C@H]2CC[C@@H](C(=O)N3CC(C4CCOCC4)C3)N2C1=O)c1cc2cc(C(F)(F)P(=O)(O)O)ccc2s1 [Compound 119, (difluoro(2-(((3S,6S,9aS)-5-oxo-3-(3-(tetrahydro-2H-pyran-4-yl)azetidine-1-carbonyl)octahydro-1H-pyrrolo[1,2-a]azepin-6-yl)carbamoyl)benzo[b]thiophen-5-yl)methyl) phosphonic acid]
IC50 [1, 3]: 3 to 30 µM | IC50 [2, 4]: 0.1 to 1 µM

CC(=O)N1C[C@H](NC(=O)[C@@H]2CC[C@@H]3CCC[C@H](NC(=O)c4cc5cc(C(F)(F)P(=O)(O)O)ccc5s4)C(=O)N32)[C@@H](O)C1 [Compound 120, ((2-(((3S,6S,9aS)-3-(((3S,4S)-1-acetyl-4-hydroxypyrrolidin-3-yl)carbamoyl)-5-oxooctahydro-1H-pyrrolo[1,2-a]azepin-6-yl)carbamoyl)benzo[b]thiophen-5-yl)difluoromethyl) phosphonic acid]
IC50 [1, 3]: 0.3 to 3 µM | IC50 [2, 4]: 0.1 to 1 µM

O=C(N[C@H]1CCC[C@H]2CC[C@@H](C(=O)Nc3ccc(-c4ccccc4)cc3)N2C1=O)c1cc2cc(C(F)(F)P(=O)(O)O)ccc2s1 [Compound 121, ((2-(((3S,6S,9aS)-3-([1,1′-biphenyl]-4-ylcarbamoyl)-5-oxooctahydro-1H-pyrrolo[1,2-a]azepin-6-yl)carbamoyl)benzo[b]thiophen-5-yl)difluoromethyl) phosphonic acid]
IC50 [1, 3]: 0.3 to 3 µM | IC50 [2, 4]: 0.1 to 1 µM

CCCC(=O)NC1(c2ccccn2)CN(C(=O)[C@@H]2CC[C@@H]3CCCC[C@H](NC(=O)c4cc5cc(C(F)(F)P(=O)(O)O)ccc5s4)C(=O)N32)C1 [Compound 122, ((2-(((3S,6S,10aS)-3-(3-butyramido-3-(pyridin-2-yl)azetidine-1-carbonyl)-5-oxodecahydropyrrolo[1,2-a]azocin-6-yl)carbamoyl)benzo[b]thiophen-5-yl)difluoromethyl)phosphonic acid]
IC50 [1, 3]: 3 to 30 µM | IC50 [2, 4]: < 0.1 µM

O=C(N[C@H]1CCCC[C@H]2CC[C@@H](C(=O)N3CC(NC(=O)C4CC4)(c4ccccn4)C3)N2C1=O)c1cc2cc(C(F)(F)P(=O)(O)O)ccc2s1 [Compound 123, ((2-(((3S,6S, 10aS)-3-(3-(cyclopropane-carboxamido)-3-(pyridin-2-yl)azetidine-1-carbonyl)-5-oxodeca-hydropyrrolo [1,2-a]azocin-6-yl)carbamoyl)benzo[b]thiophen-5-yl)difluoromethyl) phosphonic acid]
IC50 [1, 3]: 3 to 30 µM | IC50 [2, 4]: < 0.1 µM

O=C(CCC(F)(F)F)NC1(c2ccccn2)CN(C(=O)[C@@H]2CC[C@@H]3CCCC[C@H](NC(=O)c4cc5cc(C(F)(F)P(=O)(O)O)ccc5s4)C(=O)N32)C1 [Compound 124, (difluoro(2-(((3S,6S, 10aS)-5-oxo-3-(3-(pyridin-2-yl)-3-(4,4,4-trifluoro-butanamido)azetidine-1-carbonyl)decahydro-pyrrolo [1,2-a]azocin-6-yl)carbamoyl)benzo[b]thiophen-5-yl)methyl) phosphonic acid]
IC50 [1, 3]: 3 to 30 µM | IC50 [2, 4]: < 0.1 µM

O=C(N[C@H]1CCC[C@H]2CC[C@@H](C(=O)N3CCn4cncc4C3)N2C1=O)c1cc2cc(C(F)(F)P(=O)(O)O)ccc2s1 [Compound 203, (difluoro(2-(((3S,6S,9aS)-5-oxo-3-(5,6,7,8-tetrahydroimidazo[1,5-a]pyrazine-7-carbonyl)octahydro-1H-pyrrolo[1,2-a]azepin-6-yl)carbamoyl)benzo[b]thiophen-5-yl)methyl)phosphonic acid]
IC50 [1, 5]: 0.3 to 3 µM | IC50 [2, 6]: 0.1 to 1 µM

CCc1ccncc1C1CN(C(=O)[C@@H]2CC[C@@H]3CCC[C@H](NC(=O)c4cc5cc(C(F)P(=O)(O)O)ccc5s4)C(=O)N32)C1 (stereo partly drawn) [Compound 205, ((2-(((3S,6S,9aS)-3-(3-(4-ethylpyridin-3-yl)azetidine-1-carbonyl)-5-oxooctahydro-1H-pyrrolo[1,2-a]azepin-6-yl)carbamoyl)benzo[b]thiophen-5-yl)fluoromethyl)phosphonic acid]
IC50 [1, 5]: 3 to 30 µM | IC50 [2, 6]: < 0.1 µM

COc1ccncc1C1CN(C(=O)[C@@H]2CC[C@@H]3CCC[C@H](NC(=O)c4cc5cc(C(F)P(=O)(O)O)ccc5s4)C(=O)N32)C1 (stereo partly drawn) [Compound 206, (fluoro(2-(((3S,6S,9aS)-3-(3-(4-methoxypyridin-3-yl)azetidine-1-carbonyl)-5-oxooctahydro-1H-pyrrolo[1,2-a]azepin-6-yl)carbamoyl)benzo[b]thiophen-5-yl)methyl)phosphonic acid]
IC50 [1, 5]: 3 to 30 µM | IC50 [2, 6]: < 0.1 µM

C[C@H]1C[C@H]2CC[C@@H](C(=O)N3CC(c4cnccc4F)C3)N2C(=O)[C@@H](NC(=O)c2cc3cc(C(F)P(=O)(O)O)ccc3s2)C1 (stereo partly drawn) [Compound 207, (fluoro(2-(((3S,6S,8R,9aR)-3-(3-(4-fluoropyridin-3-yl)azetidine-1-carbonyl)-8-methyl-5-oxooctahydro-1H-pyrrolo[1,2-a]azepin-6-yl)carbamoyl)benzo[b]thiophen-5-yl)methyl)phosphonic acid]
IC50 [1, 5]: 3 to 30 µM | IC50 [2, 6]: < 0.1 µM

O=C(N[C@H]1CCC[C@H]2CC[C@@H](C(=O)N3CC(c4cccnc4)C3)N2C1=O)c1cc2nc(CP(=O)(O)O)ccc2s1 [Compound 208, ((2-(((3S,6S,9aS)-5-oxo-3-(3-(pyridin-3-yl)azetidine-1-carbonyl)octahydro-1H-pyrrolo[1,2-a]azepin-6-yl)carbamoyl)thieno[3,2-b]pyridin-5-yl)methyl)phosphonic acid]
IC50 [1, 5]: 3 to 30 µM | IC50 [2, 6]: 1 to 10 µM

C[C@@H]1C[C@H]2CC[C@@H](C(=O)N3CC(c4cnccc4F)C3)N2C(=O)[C@@H](NC(=O)c2cc3cc(C(F)P(=O)(O)O)ccc3s2)C1 (stereo partly drawn) [Compound 209, (fluoro(2-(((3S,6S,8S,9aR)-3-(3-(4-fluoropyridin-3-yl)azetidine-1-carbonyl)-8-methyl-5-oxooctahydro-1H-pyrrolo[1,2-a]azepin-6-yl)carbamoyl)benzo[b]thiophen-5-yl)methyl)phosphonic acid]
IC50 [1, 5]: 0.3 to 3 µM | IC50 [2, 6]: < 0.1 µM

CC[C@@H]1CC[C@H](NC(=O)c2cc3cc(C(F)P(=O)(O)O)ccc3s2)C(=O)N2[C@H](CC[C@H]2C(=O)N2CC(c3cnccc3OC)C2)C1 (stereo partly drawn) [Compound 210, ((2-(((3S,6S,9R,10aR)-9-ethyl-3-(3-(4-methoxypyridin-3-yl)azetidine-1-carbonyl)-5-oxodecahydropyrrolo[1,2-a]azocin-6-yl)carbamoyl)benzo[b]thiophen-5-yl)fluoromethyl)phosphonic acid]
IC50 [1, 5]: 3 to 30 µM | IC50 [2, 6]: < 0.1 µM

COc1ccncc1C1CN(C(=O)[C@@H]2CC[C@@H]3C[C@H](C(C)C)CC[C@H](NC(=O)c4cc5cc(C(F)P(=O)(O)O)ccc5s4)C(=O)N32)C1 (stereo partly drawn) [Compound 211, (fluoro(2-(((3S,6S,9R,10aR)-9-isopropyl-3-(3-(4-methoxypyridin-3-yl)azetidine-1-carbonyl)-5-oxodecahydropyrrolo[1,2-a]azocin-6-yl)carbamoyl)benzo[b]thiophen-5-yl)methyl)phosphonic acid]
IC50 [1, 5]: 3 to 30 µM | IC50 [2, 6]: < 0.1 µM

COC[C@@H]1CCN1c1ccncc1C1CN(C(=O)[C@@H]2CC[C@@H]3CCC[C@H](NC(=O)c4cc5cc(CP(=O)(O)O)ccc5s4)C(=O)N32)C1 [Compound 213, ((2-(((3S,6S,9aS)-3-(3-(4-((S)-2-(methoxymethyl)azetidin-1-yl)pyridin-3-yl)azetidine-1-carbonyl)-5-oxooctahydro-1H-pyrrolo[1,2-a]azepin-6-yl)carbamoyl)benzo[b]thiophen-5-yl)methyl)phosphonic acid]
IC50 [1, 5]: 3 to 30 µM | IC50 [2, 6]: < 0.1 µM
